Experiment [1] deals with Avi-humanTEAD4^217-434 / Cy5 labeled humanYAP^60-100 (Homo sapiens (Human), UniProt Q15561). The experiment can be described thus: In-vitro biochemical TR-FRET assay (TEAD4/YAP). Type of experiment: binding. The conditions noted are these: 1 h at room temperature. How it is done: N-terminus Cy5 labeled humanYAP^60-100 (20 nM) was then added to this preparation. Compounds were dissolved at 10 mM in 100% DMSO and serial dilutions were made in 100% DMSO. The diluted compound solutions were incubated in white 384-well plates (Greiner Bio-One) for 1 h at room temperature with the above described mix. The final DMSO concentration present in the assay was 1%. […] The IC50 values were estimated by fitting the data by nonlinear fit regression (GraphPad Prism).
(In general: TR-FRET usually uses a lanthanide donor and a delayed reading to cut background.)

The test system of experiment [2] is SF268-MCAT_Luc_dox-i-shYAPLevy (Clone 13) cells. Description: Proliferation assay (resazurin/AlamarBlue), SF268. In kind it is cell-based. The conditions noted are these: Homo sapiens, SF-268; SF268, 72 hours. The source says: (§1) NCI-H2052 mesothelioma cells (RRID: CVCL_1518) bearing Hippo-pathway inactivating mutations upstream of YAP (homozygous deletion of LATS2 and mutation of NF2) were obtained from ATCC (American Type Culture Collection), while SF268 glioma cells (RRID: CVCL_1689) overexpressing YAP due to genomic amplification were obtained from the NCI (National Cancer Institute). MKN-45 gastric adenocarcinoma cells (RRID: CVCL_0434) genomically deleted for YAP were obtained from the JCRB (Japanese Collection of Research Bioresources) Cell Bank.
(§2) Stock solutions of compounds were prepared at a concentration of 10 mM in DMSO and stored at 4° C. Where necessary to afford a full dose-response curve, the stock solutions were pre-diluted in DMSO to 1′000-fold the desired reduced start concentration. On the day after cell seeding, eleven 2-fold serial dilutions of each compound were dispensed directly into the cell assay plates using a HP 300D non-contact Digital Dispenser (TECAN). The final concentration of DMSO was normalized to 0.1% in all wells.
(§3) After incubation for 72 hours at 37° C., compound-mediated modulation of cell viability was quantified as follows. […] To enable differentiation of cytotoxic from cytostatic compound effects, the number of viable cells on the day of compound addition (day 0) was assessed in a separate cell plate and used to assess the extent of cell viability suppression as described in the following section.
(§4) For data analysis, the assay background value determined in wells containing medium, but no cells, was subtracted from all data points.
(§5) The extent of growth inhibition and potential cell kill was assessed by comparing the resorufin levels in compound-treated cells with those present at the time of compound addition. To this end, the following conditional concept was programmatically applied in HELIOS to calculate % growth (% G) for each compound-treated well: % G=(T−V0)/V0))*100 when T<V0, and % G=(T−V0)/(V−V0)))*100 when T≥V0, where V0 is the viability level at time of compound addition, while V and T represent vehicle-control and compound-treated viability levels, respectively, at the end of the compound incubation. 100%, 0% and −100% signify absence of growth inhibition, growth stasis, and complete cell kill, respectively. Compound concentrations leading to half-maximal growth inhibition (GI50) and residual cell viability at the highest tested compound concentration (Data(cmax), expressed in percent) were routinely calculated.

The subject of another experiment is MKN-45/Ubc-luc cells. Description: Proliferation assay (resazurin/AlamarBlue), MKN-45. Type of experiment: cell-based. Conditions: Homo sapiens; MKN-45, 72 hours.
Description: as §1
As a specificity control, MKN-45 cells were stably transduced with a Ubc-Luc reporter construct, in which constitutive expression of firefly luciferase is driven by the promoter of the ubiquitin C housekeeping gene.
as §2, §3, §4, §5

Experiment [3] has as its system NCI-H2052 Tet-On shYAP_2371 pLenti6 MCAT_Luc cells. Description: Proliferation assay (resazurin/AlamarBlue), NCI-H2052. In kind it is cell-based. Conditions: Homo sapiens; NCI-H2052, 72 hours.
Description: as §1, §2, §3, §4, §5
(Resazurin is reduced to fluorescent resorufin, in cell work by metabolically active cells.)

The subject of experiment [4] is YAP-dependent transcription in NCI-H2052 Tet-On shYAP_2371 pLenti6 MCAT_Luc cells. The experiment can be described thus: YAP reporter gene activity assay (MCAT-Luc), NCI-H2052. Type of experiment: cell-based. The conditions noted are these: Homo sapiens, 24 hrs. For orientation: A reporter such as luciferase makes a cellular process visible.
Experiment [5] deals with MKN-45/Ubc-luc cells (unspecific inhibition of luciferase expression or activity). Description: Reporter gene assay specificity control (Ubc-Luc), MKN-45. In kind it is cell-based. The conditions noted are these: Homo sapiens; MKN-45/Ubc-luc specificity control, 24 hrs.
Description: as §1
As a specificity control, MKN-45 cells were stably transduced with a Ubc-Luc reporter construct, in which constitutive expression of firefly luciferase is driven by the promoter of the ubiquitin C housekeeping gene. The resulting cell line, MKN-45/Ubc-luc, was selected and maintained in growth medium (RPMI 1640 (Amimed Cat #1-41F01-I), 2 mM L-Glutamine (Amimed Cat #5-10K50-H), 10% fetal calf serum (Amimed Cat #2-01F30-I Lot K08815P), 1% MEM Non-essential amino acids (Amimed Cat #5-13K00-H), 1× Penicillin/Streptomycin (Amimed Cat #4-01F00-H)) containing 1 μg/ml blasticidin (Gibco Cat #A11139-03).
as §2
The ability of compounds to inhibit YAP-dependent transcription was assessed in NCI-H2052 Tet-On shYAP_2371 pLenti6 MCAT_Luc and SF268-MCAT_Luc, dox-i-shYAPLevy (Clone 13) cells, while specificity (lack of unspecific inhibition of luciferase expression or activity) was assessed in MKN-45/Ubc-luc cells. The individual cell lines were seeded at 2′500 cells/20 μl/well into white-wall, clear-bottom 384-well plates (Greiner, Cat #781098) and incubated over night at 37° C. prior to addition of serial compound dilutions as described above. Following incubation for 24 hrs at 37° C., compound-mediated modulation of reporter-gene activity was quantified 5 min after addition 20 μL […] BrightGlo (Promega Cat #E2620), by measuring luminescence intensity on a multi-mode plate-reader (TECAN) with an integration time of 100 ms.
as §4

The subject of experiment [6] is YAP-dependent transcription in SF268-MCAT_Luc_dox-i-shYAPLevy (Clone 13) cells. Description: YAP reporter gene activity assay (MCAT-Luc), SF268. In kind it is cell-based. The conditions noted are these: Homo sapiens, SF-268; SF268 MCAT_Luc, 24 hrs.

We go through three molecules from US20240382600A1, “BIFUNCTIONAL DEGRADERS COMPRISING A TEAD BINDER” (Novartis AG, priority 2021, published 2024).

Some results are limits rather than exact numbers.

Avi-humanTEAD4^217-434 / Cy5 labeled humanYAP^60-100, sequence (Q15561 217-434): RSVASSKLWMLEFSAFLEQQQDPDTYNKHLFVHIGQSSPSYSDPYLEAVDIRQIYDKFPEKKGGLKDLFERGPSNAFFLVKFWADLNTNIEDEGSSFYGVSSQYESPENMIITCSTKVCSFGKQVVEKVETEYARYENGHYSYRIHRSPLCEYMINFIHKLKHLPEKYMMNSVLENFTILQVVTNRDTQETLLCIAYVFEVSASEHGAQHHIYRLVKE

Consider `COc1ccc(OCC(=O)N2CCC(CC3CCN(C(=O)[C@H]4CC[C@H](NC[C@]5(c6ccccc6)Oc6cc(F)c(Cl)c(-c7c(C(N)=O)ccc(OC)c7F)c6[C@@H]5C)CC4)CC3)CC2)cc1N1CCC(=O)NC1=O` (atropisomer, axis not shown) [Example 30, 2-((2S,3S,4S)-5-chloro-2-((((1r,4S)-4-(4-((1-(2-(3-(2,4-dioxotetrahydropyrimidin-1(2H)-yl)-4-methoxyphenoxy)acetyl)piperidin-4-yl)methyl)piperidine-1-carbonyl)cyclohexyl)amino)methyl)-6-fluoro-3-methyl-2-phenyl-2,3-dihydrobenzofuran-4-yl)-3-fluoro-4-methoxybenzamide], for which the half-maximal inhibitory concentration (IC50) in experiment [1] is 2.6 nM; in experiment [4] it was 6.9 nM; in experiment [5], > 2000 nM; in experiment [6], 1.1 nM. The figures for the GI50 (in experiment [2]; in the experiment on MKN-45/Ubc-luc cells; in experiment [3]) were 35 nM, > 200 nM and 27 nM, respectively.

With `CNC(=O)c1cnc(OCCOCCOCCn2cc(-c3cccc(N4CCC(=O)NC4=O)c3)nn2)c(F)c1-c1c(Cl)c(F)cc2c1C[C@](c1ccccc1)([C@@H]1CCCN1)O2` (atropisomer, axis not shown) [Example 34, 4-((2S,4S)-5-chloro-6-fluoro-2-phenyl-2-((S)-pyrrolidin-2-yl)-2,3-dihydrobenzofuran-4-yl)-6-(2-(2-(2-(4-(3-(2,4-dioxotetrahydropyrimidin-1(2H)-yl)phenyl)-1H-1,2,3-triazol-1-yl)ethoxy)ethoxy)ethoxy)-5-fluoro-N-methylnicotinamide], the IC50 is 6.9 nM in experiment [1], 2800 nM in experiment [4], > 20000 nM in experiment [5] and 3530 nM in experiment [6]. Further, the GI50 in experiment [2] is 19300 nM; in the experiment with MKN-45/Ubc-luc cells it was > 20000 nM; in experiment [3] it was 2270 nM.

In the case of `COc1ccc(C(N)=O)c(-c2c(Cl)c(F)cc3c2[C@H](C)[C@@](CN[C@H]2CC[C@H](C(=O)N4CCC(CC5CCN(C(=O)COc6cc(-c7scnc7C)ccc6CNC(=O)[C@@H]6C[C@@H](O)CN6C(=O)[C@@H](NC(=O)C6(F)CC6)C(C)(C)C)CC5)CC4)CC2)(c2ccccc2)O3)c1F` (atropisomer, axis not shown) [Example 42, (2S,4R)-N-(2-(2-(4-((1-((1S,4r)-4-((((2S,3S,4S)-4-(6-carbamoyl-2-fluoro-3-methoxyphenyl)-5-chloro-6-fluoro-3-methyl-2-phenyl-2,3-dihydrobenzofuran-2-yl)methyl)amino)cyclohexane-1-carbonyl)piperidin-4-yl)methyl)piperidin-1-yl)-2-oxoethoxy)-4-(4-methylthiazol-5-yl)benzyl)-1-((S)-2-(1-fluorocyclopropane-1-carboxamido)-3,3-dimethylbutanoyl)-4-hydroxypyrrolidine-2-carboxamide], the IC50 in experiment [1] was 19 nM; in experiment [4] it was 4.2 nM; in experiment [5] it was > 2000 nM; in experiment [6], 0.45 nM. The GI50 in experiment [2] was 31 nM; in the experiment on MKN-45/Ubc-luc cells, > 200 nM; in experiment [3] it was 31 nM.

One may read the IC50 as the midpoint of a concentration-inhibition curve. A low value points to greater potency in that assay. One may read the GI50 as the concentration at which growth is held to half of that of the control.
